Source: PubChem BioAssay (NCI)
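1) Cells in 96-well plates. 2) Compound, 48 h, 5 concentrations. 3) Linear interpolation between surrounding doses. 4) Unreached endpoint = highest concentration. The concentration for 50% growth inhibition is given as GI50. TGI denotes the concentration required for complete inhibition of growth.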

Columns and labels:
Assay in all cases: NCI tumour cell line growth inhibition, 48 h
[1] = tested on: MCF7 breast
[2] = tested on: HT29 colon
[3] = tested on: K-562 leukemia
[4] = tested on: U251 CNS
[5] = tested on: MALME-3M melanoma
[6] = tested on: IGROV1 ovarian
[7] = tested on: NCI/ADR-RES ovarian
[8] = tested on: SK-MEL-2 melanoma
[9] = tested on: SK-OV-3 ovarian
[10] = tested on: HOP-18 NSCLC
[11] = tested on: XF 498 CNS

Compound	TGI [1]	TGI [2]	TGI [3]	TGI [4]	TGI [5]	TGI [6]	TGI [7]	TGI [8]	TGI [9]	GI50 [5]	TGI [10]	TGI [11]	GI50 [6]
COc1cc2c(cc1OCCCN1C(=O)c3cccc4cccc(c34)C1=O)N=C[C@@H]1CCCN1C2=O	> 56.7 µM	> 100 µM	> 80.5 µM	> 100 µM	35.1 µM	31.5 µM	> 100 µM	> 100 µM	> 100 µM				
CC1OC(O[C@H]2C3C=CO[C@@H](OC4OC(CO)C(O)C(O)C4O)C3[C@@]3(COC(=O)/C=C/c4ccccc4)O[C@@H]23)C(O)C(O)C1O (stereo partly drawn)	> 100 µM	> 100 µM	> 100 µM	> 100 µM	> 100 µM	> 100 µM	> 100 µM	> 100 µM	> 100 µM				
COC(=O)c1ccccc1CC1Cc2cccc(C)c2C1=O (stereo not drawn)	56.1 µM	58.3 µM	68.4 µM	> 100 µM	48.3 µM	> 100 µM	> 100 µM	53.2 µM	> 100 µM				
O=C(O)C(O)C(O)C(O)C(O)CO (stereo not drawn)	> 100 µM	> 100 µM	> 100 µM	> 100 µM	> 100 µM	> 100 µM	> 100 µM	> 100 µM	> 100 µM				
CC(C)Oc1cccc(N2C(=NCc3c[nH]c4ccccc34)Nc3ccncc3S2(=O)=O)c1	> 100 µM	> 100 µM	> 100 µM	> 100 µM	58.8 µM	> 100 µM	97.5 µM	51.3 µM	> 100 µM				
O=C(NCCCl)O/N=C/c1cccnc1	> 100 µM	> 100 µM	> 100 µM	> 100 µM	> 100 µM	> 100 µM	> 100 µM	> 100 µM	> 100 µM	89.5 µM	> 100 µM	> 100 µM	
CC1=C(C#N)c2nc3ccccc3n2C(=O)C1(C)CCO (stereo not drawn)	> 100 µM	> 100 µM	> 100 µM	> 100 µM	> 100 µM	> 100 µM	> 100 µM	> 100 µM	> 100 µM				
COc1ccc2oc(=N)c(C(=O)Nc3ccccc3)cc2c1	33.2 µM	> 100 µM	4.19 µM	55.1 µM	53.2 µM	97.4 µM	44 µM	37.4 µM	39.7 µM				
CSc1csc(-c2ccc(-c3ccc(-c4cc(SC)cs4)s3)s2)c1	> 100 µM	> 100 µM	> 100 µM	> 100 µM	> 100 µM	> 100 µM	> 100 µM	> 100 µM	> 100 µM				
CC(C)N1CCN(c2ccc(OCC3COC(Cn4cncn4)(c4ccc(Cl)cc4Cl)O3)cc2)CC1 (stereo not drawn)	28.9 µM	13.4 µM	19.8 µM	26.7 µM	22.2 µM	33.6 µM	54.9 µM	30.5 µM	28.9 µM				
C/C1=C\[C@H](C)C[C@H](C)OC(=O)[C@H](C)NC(=O)[C@@H](Cc2ccc(O)c(Br)c2)N(C)C(=O)[C@H](C)NC(=O)[C@@H](C)C1	> 25 µM	> 3.13 µM	> 25 µM	> 7.76 µM	2.32 µM	0.105 µM	> 19.8 µM	9.34 µM	2.04 µM				
COc1ccc(-c2nc3ccccc3c(=S)n2OC(C)=O)cc1	> 25 µM	> 25 µM	> 25 µM	> 25 µM	20.4 µM	> 25 µM	> 25 µM	> 25 µM	> 25 µM				
Cc1ccsc1/C=N/Nc1cnccn1	> 100 µM	> 100 µM	> 100 µM	> 100 µM	> 100 µM	> 100 µM	> 100 µM	> 100 µM	> 100 µM				
CN1Cc2c(nc(-c3ccccc3)c[n+]2[O-])N(C)C1		> 100 µM	> 100 µM	> 100 µM	> 100 µM	> 100 µM		> 100 µM	> 100 µM		> 100 µM	> 100 µM	
CC(C)(C)OC(=O)NC(CSSCC(NC(=O)OC(C)(C)C)C(=O)O)C(=O)O (stereo not drawn)	> 100 µM	> 100 µM	> 100 µM	> 100 µM	> 100 µM	> 100 µM	> 100 µM	> 100 µM	> 100 µM				
O=C1NC(O)CCN1C1OC(CO)C(O)C1O (stereo not drawn)	> 250 µM	> 250 µM	> 250 µM	> 169 µM	> 250 µM	> 250 µM	> 250 µM	> 158 µM	> 250 µM		> 250 µM	> 250 µM	
O=C1c2cccc3cccc(c23)C(=O)N1CCCNCCCCNCCCNCCCN1C(=O)c2cccc3cccc(c23)C1=O	0.599 µM	1.15 µM	3.79 µM	1.73 µM	1.25 µM	3.41 µM	49.6 µM	2.75 µM	3.42 µM				
CCOC(=O)/C(C(C)=O)=C(\OC(C)=O)c1ccncc1C(=O)O	> 100 µM	> 100 µM	> 100 µM	> 100 µM	> 100 µM	> 100 µM	> 100 µM	> 100 µM	> 100 µM				

Compound	TGI [1]	TGI [2]	TGI [3]	TGI [4]	TGI [5]	TGI [6]	TGI [7]	TGI [8]	TGI [9]	GI50 [5]	TGI [10]	TGI [11]	GI50 [6]
C=CC1(C)CC(=O)C2(O)C(C)(O1)C(OC(C)=O)C(O)C1C(C)(C)CCC(O)C12C (stereo not drawn)	> 115 µM	> 150 µM	> 150 µM	> 94.6 µM	> 150 µM	> 121 µM	> 130 µM	> 150 µM	> 120 µM		> 138 µM	142 µM	> 77.2 µM
COc1ccc(C(=O)NCCN(C)C)c2nc3ccccc3cc12	3.99 µM	5.6 µM	12.5 µM	7.62 µM	2.3 µM	6.18 µM	5.22 µM	7.46 µM	8.69 µM				
Nc1ncc2c(n1)-c1ccccc1OC2N1CCCC1 (stereo not drawn)	> 100 µM	> 100 µM	> 100 µM	> 100 µM	> 100 µM	> 100 µM	> 100 µM	> 100 µM	> 100 µM				
COc1ccc(CC(N)=O)cc1OC	> 1250 µM	> 1250 µM	> 1250 µM	> 1250 µM	> 1250 µM	> 1250 µM	> 1250 µM	> 1250 µM	> 1250 µM		> 1250 µM	> 1250 µM	
O=C(CCSC1=NCCCN1)c1ccc(F)cc1	20.4 µM	40.5 µM	10.1 µM	44.8 µM	19.1 µM	44.4 µM	> 91.5 µM	36.5 µM	43.5 µM				
O=[N+]([O-])c1cc2oc(CSc3ccccc3)nc2cc1Cl	> 100 µM	> 100 µM	> 100 µM	66.6 µM	> 100 µM	> 100 µM	40 µM	51.4 µM	78.7 µM				
C[C@@H]1CC[C@H]2[C@H]1[C@H]1[C@@H](CC[C@]2(C)N=C=S)C1(C)C	34 µM	52.7 µM	35.7 µM	30.5 µM	52.8 µM	> 100 µM	43.9 µM	43.9 µM	> 100 µM				
O=C1/C(=C/c2ccc(Cl)cc2)CCCc2ccccc21	65.8 µM	19.7 µM	12 µM	27.4 µM	27.5 µM	43.3 µM	32.6 µM	27.8 µM	96.5 µM				
COc1cc(C2c3cc4c(cc3[C@@H](Nc3ccccc3)C3COC(=O)[C@H]23)OCO4)cc(OC)c1O (stereo partly drawn)	> 41.2 µM	3.64 µM	9.32 µM		8.65 µM	17.5 µM	45.2 µM	6.97 µM	4.87 µM		22.6 µM	7.84 µM	
N#CC(c1ccccc1)N(CCOCCOCCN(C(=O)c1ccccc1)C(C#N)c1ccccc1)C(=O)c1ccccc1 (stereo not drawn)	> 100 µM	> 100 µM	> 100 µM	> 100 µM	> 100 µM	> 100 µM	> 100 µM	> 100 µM	> 100 µM				
CN1CCN(Cc2cc3c(nn2)-c2ccccc2C3=O)CC1	> 100 µM	> 100 µM	> 100 µM	> 100 µM	39.2 µM	> 100 µM	> 100 µM	> 100 µM	> 100 µM				
O=c1onc2n1-c1cc(Cl)ccc1C(=S)N1CSCC21 (stereo not drawn)	> 100 µM	> 100 µM	63.8 µM	> 100 µM	> 100 µM	> 100 µM	> 100 µM	> 100 µM	> 100 µM				
CC(C)(C)c1ccc2c(c1)C#Cc1cc3c(cc1OCCCO2)C#Cc1cc(C(C)(C)C)ccc1OCCCO3	> 100 µM	> 100 µM	> 100 µM	> 100 µM	> 100 µM	> 100 µM	29.5 µM	> 100 µM	> 100 µM				
CCOC(=O)/C=C1/C(CCCOCc2ccccc2)C2CCCC23CC2(CCN13)OCCO2 (stereo not drawn)		45.4 µM	63.7 µM	51.4 µM	33.9 µM	> 100 µM		36.9 µM	82.9 µM		50 µM	26.8 µM	
CCN(C(=O)N[C@@H](C)C(=O)N[C@@H](Cc1ccccc1)C(=O)OC)c1ccccc1	> 100 µM	> 100 µM	> 100 µM	> 100 µM	83.8 µM	> 100 µM	> 100 µM	> 100 µM	> 100 µM				
c1ccc(C(C(=Nc2ccc(Cc3ccc(N=C(C(c4ccccc4)c4ccccc4)N4CC4)cc3)cc2)N2CC2)c2ccccc2)cc1	15.4 µM	15.9 µM	17.6 µM	30.9 µM	38.8 µM	2.41 µM	24.2 µM	24.6 µM	11.1 µM				
O=C(NN1C(=O)CS(=O)(=O)C1c1ccc(C(F)(F)F)cc1)c1ccncc1 (stereo not drawn)		> 100 µM		> 100 µM	> 100 µM			> 100 µM	> 100 µM		> 100 µM	> 100 µM	
OCCCc1ccc2c(c1)[C@H](CO)[C@@H](c1ccc(O)cc1)O2	> 100 µM	> 100 µM	> 100 µM	> 100 µM	29.2 µM	> 100 µM	> 100 µM	> 100 µM	> 100 µM				
